# Source: ChEMBL document CHEMBL4411307, “N,N'-diaryl-bishydrazones in a biphenyl platform: Broad spectrum antifungal agents” (Eur J Med Chem, 2019)
# The source made the active and inactive calls. The rule behind the calls is not given here.
# Experiments:
# [1] = Selectivity index, ratio of CC50 for human A549 cells to MIC for Candida parapsilosis ATCC 22019; format: toxicity; details: read-out: Selectivity Index
# [2] = Selectivity index, ratio of compound concentration showing <20 to <30% hemolysis in mouse RBC to MIC for fluconazole/ITC-resistant Candida albicans ATCC 64124; format: toxicity; details: red blood cells (erythrocytes), read-out: Selectivity Index
# [3] = Selectivity index, ratio of compound concentration showing <20 to <30% hemolysis in mouse RBC to MIC for Candida parapsilosis ATCC 22019; format: toxicity; details: mouse red blood cells (RBC), read-out: Selectivity Index
# [4] = Selectivity index, ratio of CC50 for human A549 cells to MIC for Candida krusei ATCC 6258; format: toxicity; details: read-out: Selectivity Index
# [5] = system: Aspergillus nidulans; test: Antifungal activity against Aspergillus nidulans ATCC 38163 measured after 48 hrs by CLSI M38-A2 protocol based method; format: functional; details: ATCC 38163, 48 h
# [6] = Selectivity index, ratio of CC50 for human A549 cells to MIC for fluconazole/ITC-resistant Candida albicans ATCC 64124; format: toxicity; details: read-out: Selectivity Index
# [7] = Hemolytic activity in mouse RBC at 3.9 ug/ml after 1 hr relative to control; format: ADME, cell-based, Erythrocyte; details: red blood cells (erythrocytes), read-out: Activity
# [8] = Hemolytic activity in mouse RBC at 62.5 ug/ml after 1 hr relative to control; format: ADME, cell-based, Erythrocyte; details: red blood cells (erythrocytes), read-out: Activity
# [9] = Selectivity index, ratio of compound concentration showing <20 to <30% hemolysis in mouse RBC to MIC for fluconazole/ITC-susceptible Candida albicans ATCC MYA-2876; format: toxicity; details: red blood cells (erythrocytes), read-out: Selectivity Index
# [10] = system: Candida albicans; test: Selectivity ratio of MIC50 for antibiofilm activity against fluconazole/ITC-resistant Candida albicans ATCC 10231 assessed as reduction in sessile growth to MIC for fluconazole/ITC-resistant Candida albicans ATCC 10231; format: functional
# [11] = system: Aspergillus terreus; test: Antifungal activity against Aspergillus terreus ATCC MYA-3633 measured after 48 hrs by CLSI M38-A2 protocol based method; format: functional; details: ATCC MYA-3633, 48 h
# [12] = target: Voltage-gated inwardly rectifying potassium channel KCNH2 (Homo sapiens, UniProt Q12809); test: Inhibition of [3H]-dofetilide binding to human ERG expressed in HEK293 cell membranes measured after 1 hr by liquid scintillation counting method
# [13] = system: Candida albicans; test: Antifungal activity against fluconazole/ITC-susceptible Candida albicans ATCC MYA-2876 measured after 48 hrs by CLSI M27-A3 protocol based method; format: functional; details: ATCC MYA-2876, 48 h
# [14] = Selectivity index, ratio of CC50 for human A549 cells to MIC for Aspergillus terreus ATCC MYA-3633; format: toxicity; details: read-out: Selectivity Index
# [15] = Selectivity index, ratio of compound concentration showing <20 to <30% hemolysis in mouse RBC to MIC for fluconazole/ITC-resistant Candida albicans ATCC 90819; format: toxicity; details: red blood cells (erythrocytes), read-out: Selectivity Index
# [16] = Selectivity index, ratio of compound concentration showing <20 to <30% hemolysis in mouse RBC to MIC for Aspergillus flavus ATCC MYA-3631; format: toxicity; details: mouse red blood cells (RBC), read-out: Selectivity Index
# [17] = Selectivity index, ratio of CC50 for human A549 cells to MIC for fluconazole/ITC-resistant Candida albicans ATCC MYA-1003; format: toxicity; details: read-out: Selectivity Index
# [18] = system: Candida albicans; test: Antifungal activity against fluconazole/ITC-resistant Candida albicans ATCC 64124 measured after 48 hrs by CLSI M27-A3 protocol based method; format: functional; details: ATCC 64124, 48 h
# [19] = system: Pichia kudriavzevii; test: Antifungal activity against Candida krusei ATCC 6258 measured after 48 hrs by CLSI M27-A3 protocol based method; format: functional; details: ATCC 6258, 48 h
# [20] = system: Candida albicans; test: Antifungal activity against fluconazole/ITC-resistant Candida albicans ATCC 90819 measured after 48 hrs by CLSI M27-A3 protocol based method; format: functional; details: ATCC 90819, 48 h
# [21] = system: Candida albicans; test: Antibiofilm activity against fluconazole/ITC-resistant Candida albicans ATCC 10231 assessed as reduction in sessile growth after 24 hrs by XTT assay; format: functional; details: ATCC 10231, 24 h
# [22] = system: Staphylococcus aureus; test: Antibacterial activity against methicillin-resistant Staphylococcus aureus; format: functional, organism-based
# [23] = system: Candida albicans; test: Selectivity ratio of MIC90 for antibiofilm activity against fluconazole/ITC-resistant Candida albicans ATCC 10231 assessed as reduction in sessile growth to MIC for fluconazole/ITC-resistant Candida albicans ATCC 10231; format: functional
# [24] = system: Candida albicans; test: Selectivity ratio of MIC90 for antibiofilm activity against fluconazole/ITC-resistant Candida albicans ATCC 64124 assessed as reduction in sessile growth to MIC for fluconazole/ITC-resistant Candida albicans ATCC 64124; format: functional
# [25] = system: Candida parapsilosis; test: Antifungal activity against Candida parapsilosis ATCC 22019 measured after 48 hrs by CLSI M27-A3 protocol based method; format: functional; details: Lodderomyces parapsilosis, ATCC 22019, 48 h
# [26] = Selectivity index, ratio of compound concentration showing <20 to <30% hemolysis in mouse RBC to MIC for fluconazole/ITC-susceptible Candida albicans ATCC MYA-2310; format: toxicity; details: mouse red blood cells (RBC), read-out: Selectivity Index
# [27] = Selectivity index, ratio of CC50 for human A549 cells to MIC for Aspergillus nidulans ATCC 38163; format: toxicity; details: read-out: Selectivity Index
# [28] = Selectivity index, ratio of CC50 for human A549 cells to MIC for fluconazole/ITC-resistant Candida albicans ATCC MYA-1237; format: toxicity; details: read-out: Selectivity Index
# [29] = system: BEAS-2B; test: Cytotoxicity against human BEAS2B cells after 24 hrs by resazurin based assay; format: cell-based
# [30] = system: Enterococcus; test: Antibacterial activity against vancomycin-resistant Enterococcus; format: functional, organism-based
# [31] = Selectivity index, ratio of CC50 for human A549 cells to MIC for fluconazole/ITC-susceptible Candida albicans ATCC MYA-2876; format: toxicity; details: read-out: Selectivity Index
# [32] = Hemolytic activity in mouse RBC at 1.95 ug/ml after 1 hr relative to control; format: ADME, cell-based, Erythrocyte; details: red blood cells (erythrocytes), read-out: Activity
# [33] = Selectivity index, ratio of compound concentration showing <20 to <30% hemolysis in mouse RBC to MIC for fluconazole/ITC-resistant Candida albicans ATCC MYA-1237; format: toxicity; details: mouse red blood cells (RBC), read-out: Selectivity Index
# [34] = Selectivity index, ratio of compound concentration showing <20 to <30% hemolysis in mouse RBC to MIC for fluconazole/ITC-resistant Candida albicans ATCC MYA-1003; format: toxicity; details: mouse red blood cells (RBC), read-out: Selectivity Index
# [35] = system: Candida albicans; test: Antibiofilm activity against fluconazole/ITC-resistant Candida albicans ATCC 64124 assessed as reduction in sessile growth after 24 hrs by XTT assay; format: functional; details: ATCC 64124, 24 h
# [36] = system: Listeria monocytogenes; test: Antibacterial activity against Listeria monocytogenes; format: functional, organism-based
# [37] = Selectivity index, ratio of compound concentration showing <20 to <30% hemolysis in mouse RBC to MIC for Aspergillus nidulans ATCC 38163; format: toxicity; details: mouse red blood cells (RBC), read-out: Selectivity Index
# [38] = system: Candida albicans; test: Selectivity ratio of MIC50 for antibiofilm activity against fluconazole/ITC-resistant Candida albicans ATCC 64124 assessed as reduction in sessile growth to MIC for fluconazole/ITC-resistant Candida albicans ATCC 64124; format: functional
# [39] = Selectivity index, ratio of compound concentration showing <20 to <30% hemolysis in mouse RBC to MIC for Candida glabrata ATCC 2001; format: toxicity; details: mouse red blood cells (RBC), read-out: Selectivity Index
# Chain of Voltage-gated inwardly rectifying potassium channel KCNH2 (Q12809 whole entry): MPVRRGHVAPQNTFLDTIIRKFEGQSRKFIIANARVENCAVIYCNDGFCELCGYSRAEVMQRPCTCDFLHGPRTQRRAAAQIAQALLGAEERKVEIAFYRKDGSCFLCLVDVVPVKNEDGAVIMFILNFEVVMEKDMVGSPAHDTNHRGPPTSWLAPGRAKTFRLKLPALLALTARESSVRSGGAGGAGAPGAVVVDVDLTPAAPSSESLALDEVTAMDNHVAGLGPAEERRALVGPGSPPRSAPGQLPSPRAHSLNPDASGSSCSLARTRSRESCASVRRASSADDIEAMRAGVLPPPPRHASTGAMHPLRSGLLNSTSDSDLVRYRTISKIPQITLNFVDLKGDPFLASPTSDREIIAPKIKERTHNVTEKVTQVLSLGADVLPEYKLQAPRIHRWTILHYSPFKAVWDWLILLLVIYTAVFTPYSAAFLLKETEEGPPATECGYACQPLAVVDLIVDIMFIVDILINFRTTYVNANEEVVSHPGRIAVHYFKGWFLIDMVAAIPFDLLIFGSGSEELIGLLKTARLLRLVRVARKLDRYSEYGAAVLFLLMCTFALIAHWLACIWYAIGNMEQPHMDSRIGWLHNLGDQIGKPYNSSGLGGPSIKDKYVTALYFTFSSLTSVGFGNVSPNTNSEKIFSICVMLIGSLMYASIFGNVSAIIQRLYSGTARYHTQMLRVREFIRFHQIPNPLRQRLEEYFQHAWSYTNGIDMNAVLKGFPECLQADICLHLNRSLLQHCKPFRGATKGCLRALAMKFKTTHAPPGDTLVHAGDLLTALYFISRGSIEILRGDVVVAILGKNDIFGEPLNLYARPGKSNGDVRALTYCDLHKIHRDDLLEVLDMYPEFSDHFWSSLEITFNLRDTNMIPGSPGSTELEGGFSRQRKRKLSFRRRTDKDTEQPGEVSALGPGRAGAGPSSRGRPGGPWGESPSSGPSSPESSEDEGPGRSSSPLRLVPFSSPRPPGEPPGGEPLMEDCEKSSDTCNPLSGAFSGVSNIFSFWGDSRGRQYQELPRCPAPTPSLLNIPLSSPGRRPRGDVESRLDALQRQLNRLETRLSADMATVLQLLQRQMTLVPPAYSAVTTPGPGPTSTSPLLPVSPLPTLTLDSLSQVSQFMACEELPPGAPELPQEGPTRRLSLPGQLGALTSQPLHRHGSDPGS
smiles,measurement,setting,value
C/C(=N\Nc1ccc(F)cc1)c1ccc(-c2ccc(/C(C)=N/Nc3ccc(F)cc3)cc2)cc1,selectivity ratio,[1],1.1
same,selectivity ratio,[2],1 to 32
same,selectivity ratio,[3],1 to 32
same,selectivity ratio,[4],8.5
same,MIC,[5],7.8 µg/mL
same,selectivity ratio,[6],4.3
same,"hemolysis at 1 h, 3.9 ug/ml",[7],2.6%
same,"hemolysis at 1 h, 62.5 ug/ml",[8],26.2%
same,selectivity ratio,[9],1 to 32
same,selectivity ratio,[10],4
same,MIC,[11],> 31.3 µg/mL
same,IC50,[12],> 30 µM
same,MIC,[13],3.9 µg/mL
same,selectivity ratio,[14],0.5
same,selectivity ratio,[15],1 to 32
same,selectivity ratio,[16],1 to 32
same,selectivity ratio,[17],2.1
same,MIC,[18],3.9 µg/mL
same,MIC,[19],1.95 µg/mL
same,MIC,[20],7.8 µg/mL
same,MIC50,[21],8 µg/mL
same,MIC90,[21],> 32 µg/mL
same,Activity,[22],inactive
same,selectivity ratio,[23],16
same,selectivity ratio,[24],8
same,MIC,[25],15.6 µg/mL
same,selectivity ratio,[26],1 to 32
same,selectivity ratio,[27],2.1
same,selectivity ratio,[28],2.1
same,CC50,[29],10.7 µg/mL
same,Activity,[30],inactive
same,selectivity ratio,[31],4.3
same,"hemolysis at 1 h, 1.95 ug/ml",[32],2.6%
same,selectivity ratio,[33],1 to 32
same,selectivity ratio,[34],1 to 32
same,MIC50,[35],16 µg/mL
same,MIC90,[35],> 32 µg/mL
same,Activity,[36],inactive
same,selectivity ratio,[37],1 to 32
same,selectivity ratio,[38],4
same,selectivity ratio,[39],1 to 32
